# Reference: patent US4895937A, “5-ioso-2-pyrimidinone nucleoside” (The Research Foundation of State University of New York, priority 1988, dated 1990)
# What was measured:
# HSV-2 (strain 333) = assay: Antiviral activity, HSV-2 plaque reduction (Example 8 Part A); type: cell-based
# Method: The effects of 1-(2-Deoxy-β-D-ribofuranosyl)-5-iodo-2-pyrimidinone (IPdR) of Example 3 were compared with 1-(2-Deoxy-β-D-ribofuranosyl)-5-fluoro-2-pyrimidinone (FPdR) on HSV-2 (strain 333) in […]. Twenty four well plates (sterile) were plated with 10^6 Vero cells/well the day before infecting. 250 PFU of HSV-2 were used in each well. The test compounds, IPdR and FPdR, were added at zero times of post infection and the cultures incubated at 37° C. for 48 hours. At the end of the incubation period the media was removed from Vero cells. Plates were strained with 0.8% crystal violet in 50% ethanol for 15 minutes. The plaque was counted.
# [1] = system: virus-specific thymadine kinase; assay: Binding to the virus-specific thymidine kinase (Example 10); settings: compared with BrPdR
structure (smiles),measurement,setting,value
"O=c1ncc(I)cn1[C@H]1C[C@H](O)[C@@H](CO)O1 [IPdR, 1-(2-Deoxy-β-D-Ribofuranosyl)-5-iodo-2-pyrimidinone]","antiviral activity, comparison of IPdR and FPdR",HSV-2 (strain 333),comparable in antiviral activity
same,inhibition at 100 µM,"HSV-2 (strain 333); Human alphaherpesvirus 2, Vero, 100 μM, 48 hours",51.1%
same,binding to the virus-specific thymadine kinase,[1],stronger binding to the virus-specific thymadine kinase
